≈ marks a conversion by molar mass, not a printed value.
What was measured:
Type in all cases: cell-based
[1] = test system: human hepatic-cancer cells, Hep G2; assay: Ex vivo survival assay (MTT) for anti-hepatic cancer effects, Hep G2; details: for IC50 value lower than that of crude extracts from A. camphorata: Hep G2, relative to crude extracts (18.63 µg/ml); for IC50 ( µg/ml ) HepG2: Hep G2 cells, 48 hours incubation, MTT, 570 nm
Text: (§1) MTT assay is commonly used to determine cell proliferation, percent of viable cells, and cytotoxicity. 3-[4,5-dimethylthiazol-2-yl]2,5-diphenyltetrazolium bromide (MTT) is a yellow dye, which can be absorbed by the living cells and be reduced to purplish blue formazan crystals by succinate tetrazolium reductase in mitochondria. Formazan formation can therefore be used to assess and determine the survival rate of cells. The NCI anti-cancer drug screen model was employed to test the anti-cancer effect of the Antroquinonol B and Antroquinono C in the present invention. The Antroquinonos isolated from example 1 were added into the culture media of human hepatic-cancer cells, Hep 3B or Hep G2, for tumor cell survival assay. Hepatic-cancer cells Hep 3B (BCRC 60434) and Hep G2 (BCRC 60025), were obtained from the Bioresources Collection and Research Center (BCRC) of the Food Industry Research and Development Institute. The human hepatic-cancer cells, Hep 3B and Hep G2, were cultivated in media containing fetal calf serum for 24 hours. The proliferated cells were washed once with PBS, then treated with 1x trypsin-EDTA and centrifuged at 1200 rpm for 5 minutes. The supernatant was discarded and the cell pellet was resuspended in 10 ml of fresh culture medium by gently shaking. The cells were placed in a 96-well plate. Total ethanol extracts of Antrodia camphorata without purification (the control group), Antroquinonol B or Antroquinonol C (the experimental group) were added into each of the 96 wells at the following concentrations: 30, 10, 3, 1, 0.3, 0.1 and 0.03 µg/ml, respectively. The cells were incubated at 37°C in a 5% CO2 incubator for 48 hours. MTT was added in a concentration of 2.5 mg/ml into each well in dark and incubated for 4 hours, followed by the addition of 100 µl of lysis buffer to stop the reaction. The plates were read on an ELISA reader at wavelength of 570 nm to determine the survival rates. Table 3 Results of ex vivo survival assay for inhibition of hepatic cancer cells

[2] = test system: human breast-cancer cells, MCF-7; assay: Ex vivo survival assay (MTT) for anti-breast cancer effects, MCF-7; details: for IC50 value lower than that of crude extracts from A. camphorata: MCF-7, relative to crude extracts (11.13 µg/ml); for IC50(µg/ml) MCF-7: MCF-7 cells, 48 hours incubation, MTT, 570 nm
Protocol: (§2) The NCI anti-cancer drug screen model was adopted to test the anti-cancer effect of the isolated compounds from example 1 in the present invention. The isolated Antroquinonol B and Antroquinonol C from example 1 were added into the culture media of human breast-cancer cells, MCF-7 or MDA-MB-231, to test for tumor cell survival. This survival assay was carried out with the widely known MTT (3-[4,5-dimethylthiazol-2-yl]2,5-diphenyltetrazolium bromide) assay. MCF-7 cell line is originated from primary breast cancer cells (early stage), sensitive to estrogen and therefore is estrogen-dependent, while MDA-MB-231 is insensitive to estrogen and therefore is estrogen-independent, which is a difficult tumor with a low survival rate. MTT assay is commonly used to determine cell proliferation, percent of viable cells, and cytotoxicity. 3-[4,5-dimethylthiazol-2-yl]2,5-diphenyltetrazolium bromide (MTT) is a yellow dye, which can be absorbed by the living cells and be reduced to purplish blue formazan crystals by succinate tetrazolium reductase in mitochondria. Formazan formation can therefore be used to assess and determine the survival rate of cells. The human breast-cancer cells, MCF-7 (purchased from the Bioresources Collection and Research Center (BCRC) with the accession number of BCRC60436) and MDA-MB-231 (purchased from National Health Research Institutes (NHRI) with the accession number of CCRC 60425) were cultivated in media containing fetal calf serum for 24 hours. The proliferated cells were washed once with PBS, then treated with 1x trypsin-EDTA and centrifuged at 1200 rpm for 5 minutes. The supernatant was discarded and the cell pellet was resuspended in 10 ml of fresh culture medium by gently shaking. The cells were placed in a 96-well plate. Total ethanol extracts of Antrodia camphorata without purification (the control group), Antroquinonol B or Antroquinonol C (the experimental group) were added into each of the 96 wells at the following concentrations: 30, 10, 3, 1, 0.3, 0.1 and 0.03 µg/ml, respectively. The cells were incubated at 37°C in a 5% CO2 incubator for 48 hours. MTT was added in a concentration of 2.5 mg/ml into each well in dark and incubated for 4 hours, followed by the addition of 100 µl of lysis buffer to stop the reaction. The plates were read on an ELISA reader at wavelength of 570 nm to determine the survival rates. Table 1 Results of ex vivo survival assay for inhibition of breast cancer cells

[3] = test system: human lung cancer cell A549; assay: Ex vivo survival assay (MTT) for anti-lung cancer effects, A549; details: for IC50 value lower than that of crude extracts from A. camphorata: A549, relative to crude extracts (13.21 µg/ml); for IC50 ( µg/ml ) A549: A549 cells, 48 hours incubation, MTT, 570 nm
Text: MTT assay is commonly used to determine cell proliferation, percent of viable cells, and cytotoxicity. 3-[4,5-dimethylthiazol-2-yl]2,5-diphenyltetrazolium bromide (MTT) is a yellow dye, which can be absorbed by the living cells and be reduced to purplish blue formazan crystals by succinate tetrazolium reductase in mitochondria. Formazan formation can therefore be used to assess and determine the survival rate of cells. The NCI anti-cancer drug screen model was also employed to test the anti-lung cancer effect of the Antroquinonol B and Antroquinonol C in the present invention. The Antroquinonols isolated from example 1 were added into the culture media of human lung cancer cell A549 with the abovementioned MTT assay to analyze lung cancer cell survival rates. Human lung cancer cell A549 was obtained from the Bioresources Collection and Research Center (BCRC) of the Food Industry Research and Development Institute with an accession number of BCRC 60074. A549 cells were cultivated in media containing fetal calf serum for 24 hours. The proliferated cells were washed once with PBS, then treated with 1x trypsin-EDTA and centrifuged at 1200 rpm for 5 minutes. The supernatant was discarded and the cell pellet was resuspended in 10 ml of fresh culture medium by gently shaking. The cells were placed in a 96-well plate. Total ethanol extracts of Antrodia camphorata without purification (the control group), Antroquinonol B or Antroquinonol C (the experimental group) were added into each of the 96 wells at the following concentrations: 30, 10, 3, 1, 0.3, 0.1 and 0.03 µg/ml, respectively. The cells were incubated at 37°C in a 5% CO2 incubator for 48 hours. MTT was added in a concentration of 2.5 mg/ml into each well in dark and incubated for 4 hours, followed by the addition of 100 µl of lysis buffer to stop the reaction. The plates were read on an ELISA reader at wavelength of 570 nm to determine the survival rates. Table 2 Results of ex vivo survival assay for inhibition of lung cancer cells

[4] = test system: human breast-cancer cells, MDA-MB-231; assay: Ex vivo survival assay (MTT) for anti-breast cancer effects, MDA-MB-231; details: for IC50 value lower than that of crude extracts from A. camphorata: MDA-MB-231, relative to crude extracts (25.81 µg/ml); for IC50(µg/ml) MDA-MB-231: MDA-MB-231 cells, 48 hours incubation, MTT, 570 nm
Protocol: as §2

[5] = test system: human prostate cancer cells, LNCaP; assay: Ex vivo survival assay (MTT) for anti-prostate cancer effects, LNCaP; details: for IC50 ( µg/ml ) LNCaP: LNCaP cells, 48 hours incubation, MTT, 570 nm; for IC50 value lower than the IC50 value of the control group: LNCaP, relative to control group (11.49 µg/ml)
Text: (§3) MTT assay is commonly used to determine cell proliferation, percent of viable cells, and cytotoxicity. 3-[4,5-dimethylthiazol-2-yl]2,5-diphenyltetrazolium bromide (MTT) is a yellow dye, which can be absorbed by the living cells and be reduced to purplish blue formazan crystals by succinate tetrazolium reductase in mitochondria. Formazan formation can therefore be used to assess and determine the survival rate of cells.
(§4) The NCI anti-cancer drug screen model was also employed to test the anti-cancer effect of the Antroquinonols in the present invention. Antroquinonol B and Antroquinonol C isolated from […] were added into the culture media of human prostate cancer cells, LNCaP or DU-145, and prostate cancer cell survival rates were analyzed with the abovementioned MTT assay. LNCaP is originated from epithelial cells of prostate gland, which depends on androgen in the early stage and thus is androgen-dependent cancer cell. […] This recurrent type prostate cancer has no effective treatment so far. Both LNCaP and DU-145 were ordered from NHRI with accession numbers of CCRC 60088 and CCRC 60348 respectively.
(§5) The human prostate-cancer cells, LNCaP and DU-145, were cultivated in media containing fetal calf serum for 24 hours. The proliferated cells were washed once with PBS, then treated with 1x trypsin-EDTA and centrifuged at 1200 rpm for 5 minutes. The supernatant was discarded and the cell pellet was resuspended in 10 ml of fresh culture medium by gently shaking. The cells were placed in a 96-well plate. Total ethanol extracts of Antrodia camphorata without purification (the control group), Antroquinonol B or Antroquinonol C (the experimental group) were added into each of the 96 wells at the following concentrations: 30, 10, 3, 1, 0.3, 0.1 and 0.03 µg/ml, respectively. The cells were incubated at 37°C in a 5% CO2 incubator for 48 hours. MTT was added in a concentration of 2.5 mg/ml into each well in dark and incubated for 4 hours, followed by the addition of 100 µl of lysis buffer to stop the reaction. The plates were read on an ELISA reader at wavelength of 570 nm to determine the survival rates. Table 4 Results of ex vivo survival assay for inhibition of prostate cancer cells

[6] = test system: human hepatic-cancer cells, Hep 3B; assay: Ex vivo survival assay (MTT) for anti-hepatic cancer effects, Hep 3B; details: for IC50 ( µg/ml ) Hep3B: Hep 3B cells, 48 hours incubation, MTT, 570 nm; for IC50 value lower than that of crude extracts from A. camphorata: Hep 3B, relative to crude extracts (5.10 µg/ml)
Text: as §1

[7] = test system: human prostate cancer cells, DU-145; assay: Ex vivo survival assay (MTT) for anti-prostate cancer effects, DU-145; details: for IC50 value lower than the IC50 value of the control group: DU-145, relative to control group (41.39 µg/ml); for IC50 ( µg/ml ) DU-145: DU-145 cells, 48 hours incubation, MTT, 570 nm
Text: as §3, §4, §5

Molecule | IC50 value lower than that of crude extracts from A. camphorata [1] | IC50 ( µg/ml ) HepG2 [1] | IC50 value lower than that of crude extracts from A. camphorata [2] | IC50(µg/ml) MCF-7 [2] | IC50 value lower than that of crude extracts from A. camphorata [3] | IC50 ( µg/ml ) A549 [3] | IC50 value lower than that of crude extracts from A. camphorata [4] | IC50(µg/ml) MDA-MB-231 [4] | IC50 ( µg/ml ) LNCaP [5] | IC50 value lower than the IC50 value of the control group [5] | IC50 ( µg/ml ) Hep3B [6] | IC50 value lower than that of crude extracts from A. camphorata [6] | IC50 value lower than the IC50 value of the control group [7] | IC50 ( µg/ml ) DU-145 [7]
COC1=C(OC)[C@H](O)[C@H](C/C=C(\C)CC/C=C(/C)C/C=C/C(C)(C)O)[C@@H](C)C1=O [Antroquinonol B] | 82.18% | 3.32 µg/mL (≈ 8.17 µM) | 82.56% | 1.94 µg/mL (≈ 4.77 µM) | 9.92% | 11.9 µg/mL (≈ 29.3 µM) | 66.21% | 8.72 µg/mL (≈ 21.4 µM) | 5.67 µg/mL (≈ 13.9 µM) | 50.65% | 1.21 µg/mL (≈ 2.98 µM) | 76.27% | 75.55% | 10.12 µg/mL (≈ 24.9 µM)
Antroquinonol C | 72.52% | 5.12 µg/mL | 89.49% | 1.17 µg/mL | 37.85% | 8.21 µg/mL | 15.15% | 21.9 µg/mL | 8.72 µg/mL | 24.11% | 1.32 µg/mL | 74.12% | 70.5% | 12.21 µg/mL
